In BindingDB's records for doi:10.1021/cb900264w (The Weizmann Institute of Science, 2010) one finds IC50 data, which are given here for three compounds.

Each structure is given as a SMILES string. pIC50: −log10 of the molar value.

The target of assay [1] is T1, Amine oxidase [flavin-containing] B (Rattus norvegicus, UniProt P19643).
T1 sequence (P19643 whole entry): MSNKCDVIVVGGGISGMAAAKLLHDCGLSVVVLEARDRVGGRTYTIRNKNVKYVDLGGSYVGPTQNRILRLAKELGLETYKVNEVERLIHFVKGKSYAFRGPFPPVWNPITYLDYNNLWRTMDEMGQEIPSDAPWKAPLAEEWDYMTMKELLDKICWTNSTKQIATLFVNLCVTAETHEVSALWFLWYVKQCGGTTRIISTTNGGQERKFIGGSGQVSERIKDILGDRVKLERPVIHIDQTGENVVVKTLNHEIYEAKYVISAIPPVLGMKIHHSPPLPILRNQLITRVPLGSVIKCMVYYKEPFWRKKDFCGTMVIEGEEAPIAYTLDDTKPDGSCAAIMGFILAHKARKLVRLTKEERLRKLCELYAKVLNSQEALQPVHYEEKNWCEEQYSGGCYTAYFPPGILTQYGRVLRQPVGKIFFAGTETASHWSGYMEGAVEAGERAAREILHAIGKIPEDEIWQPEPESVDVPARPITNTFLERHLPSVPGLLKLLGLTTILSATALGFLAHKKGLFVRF
As to the kind of experiment: Enzyme Inhibition Assay. Particulars: pH 7.4; 37 °C. An excerpt:
(§1) Inhibition of MAO activity in rat brain homogenates.

Assay [2] addresses T2, Amine oxidase [flavin-containing] A (Rattus norvegicus, UniProt P21396).
T2 sequence (P21396 whole entry): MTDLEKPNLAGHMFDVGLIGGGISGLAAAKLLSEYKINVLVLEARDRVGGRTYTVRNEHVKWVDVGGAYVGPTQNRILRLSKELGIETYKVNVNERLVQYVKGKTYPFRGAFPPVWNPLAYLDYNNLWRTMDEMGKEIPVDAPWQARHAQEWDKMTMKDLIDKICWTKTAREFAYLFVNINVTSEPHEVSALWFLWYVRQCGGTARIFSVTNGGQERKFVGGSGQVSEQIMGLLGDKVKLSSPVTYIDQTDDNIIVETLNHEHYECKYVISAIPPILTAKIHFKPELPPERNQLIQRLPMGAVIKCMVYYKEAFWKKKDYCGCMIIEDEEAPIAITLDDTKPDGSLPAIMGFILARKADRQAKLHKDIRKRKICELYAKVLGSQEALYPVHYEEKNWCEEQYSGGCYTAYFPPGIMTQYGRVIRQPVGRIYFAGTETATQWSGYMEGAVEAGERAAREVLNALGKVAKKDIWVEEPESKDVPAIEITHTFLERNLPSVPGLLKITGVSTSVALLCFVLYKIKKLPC
The experiment in a line: Enzyme Inhibition Assay. Particulars: pH 7.4; 37 °C.
From the text: as §1

In general, pIC50 refers to the negative decadic logarithm of the IC50, by convention in mol/L. High values mean a small IC50, low ones a large IC50. In assay [1], `C#CCN(C)Cc1ccc(O)c2ncccc12` [Chelator, M30] showed a pIC50 of 7.43.

Take `C#CCN(C)Cc1ccc(OC(=O)N(C)C)c2ncccc12` [Prochelators, 2]: the pIC50 in assay [2] is 8.11; in assay [1], 5.10.

With `C#CCN(C)Cc1ccc(OC(=O)N(C)CC)c2ncccc12` [Prochelators, 3], the pIC50 in assay [2] is 8.02.
